Measurements: BindingDB's records for doi:10.1021/jm950409c (University of Bari Aldo Moro, 1996)

Experiments:
[1] = Inhibitory activity against sigma receptor isolated from guinea pig brain cortex membrane using PCP as radioligand at a concentration of 10e-5 M
[2] = Inhibition of [3H]DTG binding to sigma receptor from guinea pig brain cortex membrane
[3] = target: Sigma non-opioid intracellular receptor 1 (Cavia porcellus) (UniProt Q60492); assay: Inhibitory activity against sigma receptor isolated from guinea pig brain cortex membrane using [3H]DTG as radioligand
Sigma non-opioid intracellular receptor 1 (Cavia porcellus), sequence (Q60492 whole entry, looked up): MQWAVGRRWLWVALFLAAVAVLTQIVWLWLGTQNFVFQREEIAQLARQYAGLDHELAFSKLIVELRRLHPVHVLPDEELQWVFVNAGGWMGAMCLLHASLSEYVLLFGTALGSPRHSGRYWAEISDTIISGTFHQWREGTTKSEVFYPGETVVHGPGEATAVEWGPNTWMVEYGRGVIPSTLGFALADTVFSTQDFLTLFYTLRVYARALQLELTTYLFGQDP

[4] = Inhibitory activity against 5-hydroxytryptamine 1A receptor isolated from rat hippocampus membranes membrane using [3H]5-HT as radioligand in the presence of 10e-6 M ketanserin as 5-HT2 blocker

Ki [1] [nM] | Ki [2] [nM] | Ki [3] [nM] | Ki [4] [nM] | SMILES
2130 | 265 |  |  | COc1cccc2c1CCCC2CCCNCCNc1ccccc1 (stereo unspecified) [N-[3-(5-Methoxy-1,2,3,4-tetrahydro-naphthalen-1-yl)-propyl]-N'-phenyl-ethane-1,2-diamine]
 | > 877 |  |  | COc1cccc2c1CCCC2CCCN1CCNCC1 (stereo unspecified) [1-(3-(5-methoxy-1,2,3,4-tetrahydronaphthalen-1-yl)propyl)piperazine]
 |  | 139 | > 1430 | COc1cccc2c1CCC=C2CCCN1CCN(Cc2ccccc2)CC1 [1-Benzyl-4-[3-(5-methoxy-3,4-dihydro-naphthalen-1-yl)-propyl]-piperazine]
 | 29 |  |  | COc1ccc2c(c1)C(CCCN1CCN(C3=NCCCC3)CC1)CCC2 (stereo unspecified) [1-[3-(7-Methoxy-1,2,3,4-tetrahydro-naphthalen-1-yl)-propyl]-4-(3,4,5,6-tetrahydro-pyridin-2-yl)-piperazine]
